Reference: PubChem BioAssay (NCI)
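Here, GI50 denotes the concentration required for 50% inhibition of growth. TGI: total growth inhibition.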

Assays:
Assay in all cases: NCI-60 cell line screen, 384-well format
CCRF-CEM leukemia = test system: CCRF-CEM leukemia
UACC-62 melanoma = test system: UACC-62 melanoma
TK-10 renal = test system: TK-10 renal
IGROV1 ovarian = test system: IGROV1 ovarian
ACHN renal = test system: ACHN renal
MDA-MB-468 breast = test system: MDA-MB-468 breast
UO-31 renal = test system: UO-31 renal
HOP-62 NSCLC = test system: HOP-62 NSCLC
NCI-H226 lung = test system: NCI-H226 lung
HOP-92 NSCLC = test system: HOP-92 NSCLC
OVCAR-5 ovarian = test system: OVCAR-5 ovarian
K-562 leukemia = test system: K-562 leukemia
SN12C renal = test system: SN12C renal
SNB-19 CNS = test system: SNB-19 CNS
NCI-H23 lung = test system: NCI-H23 lung
COLO 205 colon = test system: COLO 205 colon
SK-MEL-2 melanoma = test system: SK-MEL-2 melanoma
MCF7 breast = test system: MCF7 breast
786-0 renal = test system: 786-0 renal
M14 melanoma = test system: M14 melanoma
OVCAR-4 ovarian = test system: OVCAR-4 ovarian
DU-145 prostate = test system: DU-145 prostate

For `OCCn1cc(-c2cnc3nnn(Cc4ccc5ncccc5c4)c3n2)cn1`, the GI50 (CCRF-CEM leukemia) was > 100 µM, the TGI (CCRF-CEM leukemia) was > 100 µM and the GI50 (UACC-62 melanoma) was > 100 µM. The TGI (UACC-62 melanoma) was > 100 µM, the GI50 (TK-10 renal) was > 100 µM and the TGI (TK-10 renal) was > 100 µM. For the same compound, the GI50 (IGROV1 ovarian) was > 100 µM, the TGI (IGROV1 ovarian) was > 100 µM and the GI50 (ACHN renal) was > 100 µM. For the same compound, the TGI (ACHN renal) was > 100 µM, the GI50 (MDA-MB-468 breast) was > 100 µM and the TGI (MDA-MB-468 breast) was > 100 µM. For the same compound, the GI50 (UO-31 renal) was > 100 µM, the TGI (UO-31 renal) was > 100 µM and the GI50 (HOP-62 NSCLC) was > 100 µM. The TGI (HOP-62 NSCLC) was > 100 µM, the GI50 (NCI-H226 lung) was > 100 µM and the TGI (NCI-H226 lung) was > 100 µM. For the same compound, the GI50 (HOP-92 NSCLC) was > 100 µM, the TGI (HOP-92 NSCLC) was > 100 µM and the GI50 (OVCAR-5 ovarian) was > 100 µM. The TGI (OVCAR-5 ovarian) was > 100 µM, the GI50 (K-562 leukemia) was > 100 µM and the TGI (K-562 leukemia) was > 100 µM. The GI50 (SN12C renal) was > 100 µM, the TGI (SN12C renal) was > 100 µM and the GI50 (SNB-19 CNS) was > 100 µM. For the same compound, the TGI (SNB-19 CNS) was > 100 µM, the GI50 (NCI-H23 lung) was > 100 µM and the TGI (NCI-H23 lung) was > 100 µM. The GI50 (COLO 205 colon) was > 100 µM, the TGI (COLO 205 colon) was > 100 µM and the GI50 (SK-MEL-2 melanoma) was > 100 µM. The TGI (SK-MEL-2 melanoma) was > 100 µM, the GI50 (MCF7 breast) was > 100 µM and the TGI (MCF7 breast) was > 100 µM. For the same compound, the GI50 ([…]-0 renal) was > 100 µM, the TGI (786-0 renal) was > 100 µM and the GI50 (M14 melanoma) was > 100 µM. For the same compound, the TGI (M14 melanoma) was > 100 µM, the GI50 (OVCAR-4 ovarian) was > 100 µM and the TGI (OVCAR-4 ovarian) was > 100 µM. The GI50 (DU-145 prostate) was > 100 µM and the TGI (DU-145 prostate) was > 100 µM.
